{"source": "patent US20250382256A1", "about": "“DICARBOXYLIC ACID DIESTERS” (DSM IP Assets B.V., priority 2018, published 2025)", "key": {"[1]": {"assay": "Vapor pressure of the purified diester", "type": "physicochemical", "details": "purified product"}, "rumen liquor": {"system": "rumen liquor", "assay": "In vitro test for methane production (modified Hohenheim Forage value Test, HFT)", "type": "cell-based", "details": "read-out: Methane inhibition", "procedure": "A modified version of the “Hohenheim Forage value Test (HFT)” was used for testing the effect of specific compounds on the rumen functions mimicked by this in-vitro system. Principle: Feed (i.e. a TMR) (300 mg) is given into a syringe with a composition of rumen liquor and an appropriate mixture of buffers (i.e. rumen-fluid buffer mix: 25 ml) and the substances to be tested in the concentrations as outlined in table 2 (the inhibitors to be tested are diluted in ethanol to reach the respective concentration of dry matter in 50 μl). The solution is incubated at 39° C. for 8 h. The quantity of produced gas is measured and put into a formula for conversion. After the incubation the composition of gas is measured with a GC. TMR (44% concentrate, 6% hay, 37% maize silage and 13% grass silage) is sieved to 1 mm and weighed exactly into the syringes. One run contains 4 repetitions, each with 16 syringes and comprises substrate controls, which display the gas production without the effect of the tested compounds, carrier controls, which display the gas production in the presence of the carrier (solvent) only (i.e. EtOH used to dissolve the test compounds), and test samples (in the carrier), which contain the test substances in varying concentrations as outlined in table 2. The components are mixed in a Woulff bottle in following order: • 711 ml water • 0.18 ml trace element solution • 355.5 ml buffer solution • 355.5 ml mass element solution The completed solution is warmed up to 39° C. followed by the addition of 1.83 ml sodium salt solution and the addition of reduction solution at 36° C. The rumen liquor (750 ml) is added, when the indicator turns colorless under continued agitation and CO2-gassing. The rumen-fluid-buffer-mix is added to the glass syringe prepared as outlined above containing the TMR and the active to be tested. The syringes are then incubated for 8 hours at 39° C. under gentle agitation. After 8 the volume of gas produced is measured, and the percentage of methane in the gas phase is determined by gas chromatography."}}, "note": "Structures can show the parent of a compound that is named as a salt. Where two headings read alike, the source gives them in different places.", "data": [{"smiles": "O=C(CC(=O)OCCCO[N+](=O)[O-])OCCCO[N+](=O)[O-]", "note": "[(I-a), bis(3-(nitrooxy)propyl) malonate]", "values": [{"measurement": "vapor pressure", "setting": "[1]", "value": 0.00133, "unit": "mbar"}, {"measurement": "inhibition at 2.5 µM", "setting": "rumen liquor; 8 h", "value": 72, "unit": "%"}, {"measurement": "inhibition at 5 µM", "setting": "rumen liquor; 8 h", "value": 97, "unit": "%"}, {"measurement": "inhibition at 10 µM", "setting": "rumen liquor; 8 h", "value": 99, "unit": "%"}]}, {"smiles": "O=C(/C=C/C(=O)OCCCO[N+](=O)[O-])OCCCO[N+](=O)[O-]", "note": "[(I-b), bis(3-(nitrooxy)propyl) fumarate]", "values": [{"measurement": "vapor pressure", "setting": "[1]", "value": 0.00133, "unit": "mbar"}, {"measurement": "inhibition at 5 µM", "setting": "rumen liquor; 8 h", "value": 96, "unit": "%"}, {"measurement": "inhibition at 10 µM", "setting": "rumen liquor; 8 h", "value": 99, "unit": "%"}]}, {"smiles": "O=C(CCC(=O)OCCCO[N+](=O)[O-])OCCCO[N+](=O)[O-]", "note": "[(I-c), bis(3-(nitrooxy)propyl) succinate]", "values": [{"measurement": "vapor pressure", "setting": "[1]", "value": 0.00133, "unit": "mbar"}, {"measurement": "inhibition at 10 µM", "setting": "rumen liquor; 8 h", "value": 99, "unit": "%"}]}, {"smiles": "O=[N+]([O-])OCCCO", "note": "[Ref, 3-nitrooxypropanol, reference compound]", "values": [{"measurement": "inhibition at 2.5 µM", "setting": "rumen liquor; 2.5 μmol/l, 8 h at 39° C., TMR in rumen-fluid buffer mix, reduction versus substrate control", "value": 32, "unit": "%"}, {"measurement": "inhibition at 5 µM", "setting": "rumen liquor; 5 μmol/l, 8 h at 39° C., TMR in rumen-fluid buffer mix, reduction versus substrate control", "value": 86, "unit": "%"}, {"measurement": "inhibition at 10 µM", "setting": "rumen liquor; 10 μmol/l, 8 h at 39° C., TMR in rumen-fluid buffer mix, reduction versus substrate control", "value": 99, "unit": "%"}]}]}
